According to patent US8378117B2 (priority 2005, dated 2013):
Like-named read-outs stand apart in the source and are kept apart here.

Assays:
[1] = biological target: T1, CB1 receptor (Homo sapiens, UniProt P21554); assay: Binding assay for CB1 agonists or inverse agonists (SK-N-MC membranes, [3H]-CP-55,940); conditions: for inhibition at 1 µM: read-out: CB1 receptor binding percent inhibition, test concentration 1 μM (footnote 1); for inhibition at 0.2 µM: read-out: CB1 receptor binding percent inhibition, test concentration 0.2 μM (footnote 2); for inhibition at 0.25 µM: read-out: CB1 receptor binding percent inhibition, test concentration 0.25 μM (footnote 8)
T1 construct: expressed in transfected cells
In short: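 Membranes from SK-N-MC cells stably expressing human CB1 incubated with compound and [3H]-CP-55,940 ([…]) for 90 min at 30° C in Tris-HCl pH 7.5, MgCl2, EDTA, fatty-acid-free BSA. Non-specific binding defined with 10 uM WIN 55,212; filtration, scintillation count; IC50 by linear regression.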

[2] = biological target: T2, CB2 receptor (Homo sapiens, UniProt P34972); assay: Binding assay for CB2 agonists or inverse agonists (SK-N-MC membranes, [3H]-CP-55,940); conditions: for CB2 receptor binding percent inhibition: test concentration not stated; for inhibition at 0.25 µM: test concentration 0.25 μM (footnote 8)
T2 construct: expressed in transfected cells
In short: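 Membranes from SK-N-MC cells stably expressing human CB2 were incubated with radioligand and test compounds for 90 min at 30 °C in Tris-HCl buffer, pH 7.5, with MgCl2, EDTA and fatty-acid-free BSA. Filter-bound radioactivity was counted; IC50 was derived by linear regression of percent inhibition.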

[3] = test concentration 0.2 μM (footnote 2), read-out: CB2 receptor binding percent inhibition
[4] = read-out: CB2 receptor binding percent inhibition
[5] = value shown is an average percent inhibition (footnote 5), concentration not given

T1 sequence (P21554 whole entry): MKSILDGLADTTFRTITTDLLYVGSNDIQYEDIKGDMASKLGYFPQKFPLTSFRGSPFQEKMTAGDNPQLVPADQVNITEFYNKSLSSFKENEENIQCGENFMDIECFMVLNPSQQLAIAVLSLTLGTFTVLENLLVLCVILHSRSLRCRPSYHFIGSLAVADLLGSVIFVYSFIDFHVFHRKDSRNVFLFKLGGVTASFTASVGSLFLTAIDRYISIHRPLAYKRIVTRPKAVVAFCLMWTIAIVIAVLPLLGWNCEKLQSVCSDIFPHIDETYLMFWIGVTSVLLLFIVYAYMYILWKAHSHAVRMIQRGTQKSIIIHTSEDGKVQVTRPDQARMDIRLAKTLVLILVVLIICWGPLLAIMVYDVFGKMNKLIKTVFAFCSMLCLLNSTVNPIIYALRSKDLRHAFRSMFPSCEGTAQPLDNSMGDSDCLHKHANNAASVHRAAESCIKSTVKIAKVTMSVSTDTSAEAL
T2 sequence (P34972 whole entry): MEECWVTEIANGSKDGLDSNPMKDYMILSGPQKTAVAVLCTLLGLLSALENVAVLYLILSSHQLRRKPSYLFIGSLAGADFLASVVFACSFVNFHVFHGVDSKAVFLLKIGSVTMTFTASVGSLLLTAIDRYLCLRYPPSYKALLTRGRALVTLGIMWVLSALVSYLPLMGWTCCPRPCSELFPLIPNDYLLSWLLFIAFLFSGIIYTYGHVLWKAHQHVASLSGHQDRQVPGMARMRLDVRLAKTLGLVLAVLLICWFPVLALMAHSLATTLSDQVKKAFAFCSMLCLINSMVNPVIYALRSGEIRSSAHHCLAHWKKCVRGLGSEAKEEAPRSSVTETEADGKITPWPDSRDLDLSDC

For O=C(NC12CC3CC(CC(C3)C1)C2)c1nn(-c2ccc(Cl)cc2Cl)c2c1CCCCC2Cc1cccc(Cl)c1 (stereo not shown) [Cpd 22, 8-(3-chloro-benzyl)-1-(2,4-dichloro-phenyl)-1,4,5,6,7,8-hexahydro-cycloheptapyrazole-3-carboxylic acid adamantan-1-ylamide], the inhibition at 1 µM [1] was 58% and the “CB2 receptor binding percent inhibition” value [2] was 25%.
Work on C[C@@H](NC(=O)c1nn(C2CCCCC2)c2c1CCCCC2Cc1cccc(F)c1)c1ccccc1 (stereo partly drawn) [Cpd 174, 1-cyclohexyl-8-(3-fluoro-benzyl)-1,4,5,6,7,8-hexahydro-cycloheptapyrazole-3-carboxylic acid [(1R)-1-phenyl-ethyl]-amide] yielded an inhibition at 0.2 µM [1] of 0% and an inhibition at 0.2 µM [2, 3] of 33%.
In the case of O=C(c1nn(C2CCCCC2)c2c1CCCCC2Cc1cccc(F)c1)N1CCN(c2ccccc2)CC1 (stereo not shown) [Cpd 54, [1-cyclohexyl-8-(3-fluoro-benzyl)-1,4,5,6,7,8-hexahydro-cycloheptapyrazol-3-yl]-(4-phenyl-piperazin-1-yl)-methanone], the inhibition at 1 µM [1] is reported as 18% and the “CB2 receptor binding percent inhibition” value [2] is reported as 41%.
O=C(N[C@@H](CO)c1ccccc1)c1nn(C2CCCCC2)c2c1CCCC[C@@H]2Cc1ccc(F)cc1 [Cpd 66, (8R)-1-cyclohexyl-8-(4-fluoro-benzyl)-1,4,5,6,7,8-hexahydro-cycloheptapyrazole-3-carboxylic acid [(1R)-2-hydroxy-1-phenyl-ethyl]-amide] was tested, and the inhibition at 1 µM [1] was 16% and the “CB2 receptor binding percent inhibition” value [2] was 33%.
For O=C(NN1CCCCC1)c1nn(-c2ccc(Cl)cc2Cl)c2c1CCCCC2Cc1ccc(Cl)cc1 (stereo not shown) [Cpd 27, 8-(4-chloro-benzyl)-1-(2,4-dichloro-phenyl)-1,4,5,6,7,8-hexahydro-cycloheptapyrazole-3-carboxylic acid piperidin-1-ylamide], the inhibition at 1 µM [1] was 0% and the “CB2 receptor binding percent inhibition” value [2] was 0%.
O=C(NC1C2CC3CC(C2)CC1C3)c1nn(C2CCCCC2)c2c1CCCCC2Cc1ccccc1Cl (stereo not shown) [Cpd 13, 8-(2-chloro-benzyl)-1-cyclohexyl-1,4,5,6,7,8-hexahydro-cycloheptapyrazole-3-carboxylic acid adamantan-2-ylamide] was tested, and the inhibition at 1 µM [1] was 0% and the “CB2 receptor binding percent inhibition” value [2] was 14%.
For O=C(NN1CCOCC1)c1nn(C2CCCCC2)c2c1CCCCC2Cc1ccc(F)cc1 (stereo not shown) [Cpd 89, 1-cyclohexyl-8-(4-fluoro-benzyl)-1,4,5,6,7,8-hexahydro-cycloheptapyrazole-3-carboxylic acid morpholin-4-ylamide], the inhibition at 1 µM [1] was 11% and the “CB2 receptor binding percent inhibition” value [2] was 0%.
O=C(NCc1ccccc1)c1n[nH]c2c1CCCCC2Cc1ccc(F)cc1 (stereo not shown) [Cpd 129, 8-(4-fluoro-benzyl)-1,4,5,6,7,8-hexahydro-cycloheptapyrazole-3-carboxylic acid benzylamide] was tested, and the inhibition at 0.002 µM ([1]; read-out: CB1 receptor binding percent inhibition, test concentration 0.002 μM (footnote 11)) was 92%, the inhibition at 0.008 µM ([1]; read-out: CB1 receptor binding percent inhibition, test concentration 0.008 μM (footnote 12)) was 90% and the inhibition at 0.25 µM [1] was 100%. For the same compound, the “CB1 receptor binding percent inhibition” value ([1]; test concentration not stated) was 94% and the inhibition at 0.25 µM [2, 4] was 86%.
Work on C[C@H](NC(=O)c1nn(-c2ccncc2)c2c1CCCC/C2=C\c1ccc(Cl)cc1)C1CCCCC1 [Cpd 181, (8E)-8-(4-chloro-benzylidene)-1-pyridin-4-yl-1,4,5,6,7,8-hexahydro-cycloheptapyrazole-3-carboxylic acid [(1S)-1-cyclohexyl-ethyl]-amide] yielded an inhibition at 0.2 µM [1] of 32% and an inhibition at 0.2 µM [2, 3] of 57%.
In the case of O=C(N[C@H](CO)c1ccccc1)c1nn(-c2ccc(Cl)cc2Cl)c2c1CCCC[C@H]2Cc1cccc(Cl)c1 [Cpd 162, (8S)-8-(3-chloro-benzyl)-1-(2,4-dichloro-phenyl)-1,4,5,6,7,8-hexahydro-cycloheptapyrazole-3-carboxylic acid [(1S)-2-hydroxy-1-phenyl-ethyl]-amide], the inhibition at 0.2 µM [1] is reported as 16% and the inhibition at 0.2 µM [2, 3] is reported as 5%.
For COC(=O)[C@@H](Cc1ccc(O)cc1)NC(=O)c1nn(C2CCCCC2)c2c1CCCCC2Cc1cccc(F)c1 (stereo partly drawn) [Cpd 82, (2R)-2-{[1-cyclohexyl-8-(3-fluoro-benzyl)-1,4,5,6,7,8-hexahydro-cycloheptapyrazole-3-carbonyl]-amino}-3-(4-hydroxy-phenyl)-propionic acid methyl ester], the IC50 ([1]; calculated by linear regression from percent inhibition at various test concentrations, read-out: Cannabinoid CB1 Receptor Binding IC50) was 1000 nM, the “CB1 receptor binding average percent inhibition” value [1, 5] was 46% and the IC50 ([2]; Cannabinoid CB2 Receptor Binding IC50, calculated by linear regression from percent inhibition at various test concentrations) was 60 nM. The “CB2 receptor binding average percent inhibition” value [2, 5] was 88%.
Work on COC(=O)[C@@H](Cc1ccc(F)cc1)NC(=O)c1nn(Cc2ccccc2)c2c1CCCCC2c1ccccc1 (stereo partly drawn) [Cpd 87, (2R)-2-[(1-benzyl-8-phenyl-1,4,5,6,7,8-hexahydro-cycloheptapyrazole-3-carbonyl)-amino]-3-(4-fluoro-phenyl)-propionic acid methyl ester] yielded an inhibition at 0.25 µM [1] of 4% and an inhibition at 0.25 µM [2, 4] of 0%.
O=C(NC1CCC1)c1nn(Cc2ccc(Cl)cc2)c2c1CCCCC2Cc1ccc(Cl)cc1 (stereo not shown) [Cpd 30, 1,8-bis-(4-chloro-benzyl)-1,4,5,6,7,8-hexahydro-cycloheptapyrazole-3-carboxylic acid cyclobutylamide] showed an inhibition at 1 µM [1] of 28%, an IC50 ([2]; calculated by linear regression from percent inhibition at various test concentrations, read-out: Cannabinoid CB2 Receptor Binding IC50) of 600 nM and an inhibition at 1 µM ([2]; test concentration 1 μM (footnote 1), read-out: CB2 receptor binding percent inhibition) of 65%.
With C[C@@H](NS(=O)(=O)/C=C/c1n[nH]c2c1CCCC/C2=C\c1ccc(Cl)cc1)c1ccccc1 [Cpd 236, (2E,8E)-2-[8-(4-chloro-benzylidene)-1,4,5,6,7,8-hexahydro-cycloheptapyrazol-3-yl]-ethenesulfonic acid [(1R)-1-phenyl-ethyl]-amide] the inhibition at 0.2 µM [1] was 0% and the inhibition at 0.2 µM [2, 3] was 41%.
With C[C@H](NC(=O)c1nn(-c2ccc(Cl)cc2Cl)c2c1CCCC/C2=C\c1ccc(Cl)cc1)c1ccccc1 [Cpd 139, (8E)-8-(4-chloro-benzylidene)-1-(2,4-dichloro-phenyl)-1,4,5,6,7,8-hexahydro-cycloheptapyrazole-3-carboxylic acid [(1S)-1-phenyl-ethyl]-amide] the IC50 ([1]; Cannabinoid CB1 Receptor Binding IC50, calculated by linear regression from percent inhibition at various test concentrations) was 50 nM, the inhibition at 0.2 µM [1] was 72% and the inhibition at 0.2 µM ([2]; read-out: CB2 receptor binding percent inhibition, test concentration 0.2 μM (footnote 2)) was 30%.
O=C(NCc1cccc(C(F)(F)F)c1)c1nn(Cc2ccccc2)c2c1CCCCC2c1ccccc1 (stereo not shown) [Cpd 69, 1-benzyl-8-phenyl-1,4,5,6,7,8-hexahydro-cycloheptapyrazole-3-carboxylic acid 3-trifluoromethyl-benzylamide] showed an inhibition at 0.25 µM [1] of 23% and an inhibition at 0.25 µM [2, 4] of 12%.
With O=C(NC12CC3CC(CC1C3)C2)c1nn(C2CCCCC2)c2c1CCCCC2Cc1cccc(Cl)c1 (stereo not shown) [Cpd 9, 8-(3-chloro-benzyl)-1-cyclohexyl-1,4,5,6,7,8-hexahydro-cycloheptapyrazole-3-carboxylic acid (hexahydro-2,5-methano-pentalen-3a-yl)-amide] the inhibition at 1 µM [1] was 18% and the “CB2 receptor binding percent inhibition” value [2] was 4%.
With O=C(NN1CCOCC1)c1nn(C2CCCCC2)c2c1CCCCC2Cc1cccc(F)c1 (stereo not shown) [Cpd 90, 1-cyclohexyl-8-(3-fluoro-benzyl)-1,4,5,6,7,8-hexahydro-cycloheptapyrazole-3-carboxylic acid morpholin-4-ylamide] the inhibition at 1 µM [1] was 1% and the “CB2 receptor binding percent inhibition” value [2] was 2%.
